In the case of `CC1CC(C)(C)CC(OOC(C)(C)C)(OOC(C)(C)C)C1` (stereo not drawn), the melting point is -20 °C.

`O=C1C(=C2C=Cc3ccccc3N2)C(=O)c2c1cccc2[N+](=O)[O-]` yielded a melting point of 360 °C.

As to `NNC(=O)C1CCCCC1`, the melting point was 153 to 155 °C.

`CCOC(=O)C(C#N)c1ccccc1[N+](=O)[O-]` (stereo not drawn) displayed a melting point of 60 °C.

Take `C=C1C2CCC3C(CCC4C5(C)CCCC43C3OCCN3C5)(C2)C1O` (stereo not drawn): the melting point amounted to 120 °C.

`O=C(Cl)C1COc2ccccc2O1` (stereo not drawn) had a melting point of 56 to 57 °C.

As to `CCC(=O)C(C)(C)C`, the melting point is -45 °C.

Turning to `Nc1ccc(S(=O)(=O)N2CCCCC2)cc1`, the melting point lay in the range of 169 to 170 °C.

On to `NC(=O)c1sc(NCc2ccccc2)nc1N`, for which the melting point was in the range of 196 to 198 °C.

As for `OCc1cc(C(F)(F)F)cc(C(F)(F)F)c1`, the melting point is 54 °C.

As to `Cc1ccc2c(-c3ccccc3)nc(=O)n(C(C)C)c2c1`, the melting point was found to be 138 °C.

Turning to `N#C/C(=N/Nc1ccc(Br)cc1)c1nc(-c2ccccc2)cs1`, the melting point amounted to 169 °C.

The compound `O=C(O)c1cc(F)c(F)c(F)c1F` came in with a melting point of 88 to 89 °C.

Compound `FC(F)(F)C(Cl)=C(Cl)C(F)(F)F` returned a melting point of -67.3 °C.

Take `CCOC(=O)CSc1c(C)[nH]c2ccccc12`: the melting point lay within 72 to 75 °C.

On to `N#Cc1cccc(N2CCOCC2)n1`, for which the melting point fell in the range of 133 to 135 °C.

In the case of `O=C(c1noc(-c2ccc([N+](=O)[O-])cc2)c1S(=O)(=O)c1ccccc1)c1cccc2ccccc12`, the melting point came out at 160 °C.

Take `CC12CCC(O)C(C)(C)C1C(=O)C(=O)c1c(O)c(C(CO)CO)c(O)c(O)c12` (stereo not drawn): the melting point was in the range of 238 to 240 °C.

Compound `CC(=O)n1c(-c2ccccc2)c(O)c2ccc([N+](=O)[O-])cc21` gave a melting point of 179 °C.

`Nc1ccc(-n2cccc2)cc1`: the melting point came to 81 °C.

Compound `COC(=O)c1ccc(O)c(N)c1` registered a melting point of 143 °C.

Compound `CC(=O)OCOC(=O)C1N2C(=O)C(NC(=O)Cc3ccccc3)C2SC1(C)C` (stereo not drawn) showed a melting point of 107 °C.

On to `O=C(CO)[C@@H](O[C@H]1O[C@H](CO)[C@@H](O)[C@H](O)[C@H]1O)[C@H](O)[C@H](O)CO`, for which the melting point came out at 168 °C.

Turning to `COc1cc([N+](=O)[O-])c(OC)cc1Cl`, the melting point lay in the range of 144 to 145 °C.

In turn, `N[C@H]1CC[C@H](N)CC1` displayed a melting point of 68 to 71 °C.

The compound `O=C1c2ccccc2C(=O)c2c(Br)cccc21` registered a melting point of 186 °C.

The compound `O=Cc1cc([N+](=O)[O-])ccc1Cl` had a melting point of 79 °C.

On to `Cc1ccc(Sc2ncccc2C(N)=O)cc1`, for which the melting point was 205 to 207 °C.

On to `CC1(C)CC(=O)c2cc(-c3ccccc3)n(Cc3cccnc3)c2C1`, for which the melting point lay in the range of 146 to 148 °C.

For `O=NN1NC(=O)CC1c1ccc(C2CC(=O)NN2N=O)cc1` (stereo not drawn), the melting point turned out to be 150 °C.

`CN(N)C(=O)c1cc(Cl)ccc1N` had a melting point of 78 to 81 °C.

Regarding `CSC(S)=Nc1ccccc1C`, the melting point lay within 151 to 153 °C.

As to `Cc1ccc(C)n1-c1ccccc1C(=O)O`, the melting point was determined as 125 °C.

Regarding `O=C(Nc1cc([N+](=O)[O-])ccc1C(=O)O)c1ccccc1`, the melting point was determined as 252 °C.

Consider `C=C1N(C)c2ccccc2C1(C)C`, for which the melting point was -8 °C.

`Cc1nn(-c2ccccc2)nc1C(N)=O` showed a melting point of 175 to 177 °C.

Take `Cc1nc(C(F)(F)F)c(C(=O)O)cc1-c1nc(-c2ccccc2)cs1`: the melting point was 188 to 190 °C.

Take `CCOc1c2cccc1Cc1cccc(c1O)Cc1cccc(c1OP(=O)(OCC)OCC)Cc1cccc(c1O)C2`: the melting point lay within 173 to 174 °C.

For `Nc1ccc(CC(=O)O)cc1`, the melting point stood at 200 °C.

Compound `CC(=O)c1sccc1Br` displayed a melting point of 43 °C.

Turning to `CCCCCCCCOC1OC(CO)C(O)C(O)C1O` (stereo not drawn), the melting point came out at 105 °C.

Compound `CC1=NOC(=O)C1=NNc1ccccc1Cl` gave a melting point of 168 °C.

As for `COc1ccc(-n2cncn2)cc1`, the melting point turned out to be 97 °C.

For the compound `NNC(=O)C(=O)NN`, the melting point is 239 to 243 °C.

In the case of `CCCc1ccccc1O`, the melting point amounted to 7 °C.

`CC=CC(C)(C)C` registered a melting point of -115 °C.

`CC(C)NNC(=O)COc1ccc(Cl)cc1`: the melting point was 93.5 °C.

In the case of `CCCCCCCC(=O)OCC(COC(=O)CCCCCCC)OC(=O)CCCCCCC`, the melting point was 10 °C.

Turning to `Cc1nccnc1O`, the melting point worked out at 153 °C.

In turn, `COc1ccccc1C(=O)N(NC(=O)c1ccccc1)C(C)(C)C` returned a melting point of 182 °C.

`O=c1cc(Cl)nc[nH]1`: the melting point lay in the range of 194 to 195 °C.

As to `Cc1ccc(S(=O)(=O)OCC2OC(C)(C)OC2COS(=O)(=O)c2ccc(C)cc2)cc1` (stereo not drawn), the melting point was 92 °C.

Compound `ON=Cc1c(F)cccc1Cl` registered a melting point of 133 °C.

`O=C(O)c1ccc([N+](=O)[O-])cc1F` displayed a melting point of 174 °C.

On to `COC(=O)CC1Sc2ccccc2NC1=O` (stereo not drawn), for which the melting point stood at 143 °C.

As to `COC(=O)c1ccc(N(C)C)cc1`, the melting point was found to be 100 °C.

In turn, `Cc1c(-c2ccccc2)c2ccccc2n1C` showed a melting point of 111 °C.

Regarding `O=P(OC(CCl)CCl)(OC(CCl)CCl)OC(CCl)CCl`, the melting point was 27 °C.

`S=C=Nc1c(Cl)cccc1Cl` gave a melting point of 43 °C.

As to `O=[N+]([O-])c1ccccc1/C=C/c1nc2ccccc2s1`, the melting point is 131 °C.

For `O=CNC(O)C(Cl)(Cl)Cl` (stereo not drawn), the melting point was 120 °C.

On to `C#CC(O)COc1cccc(C(F)(F)F)c1` (stereo not drawn), for which the melting point worked out at 32 °C.

Compound `COc1cc(OC)nc(Sc2cccc3c2C(=O)OC3C)n1` (stereo not drawn) returned a melting point of 163 °C.

In turn, `O=C1C=CC=C2CC1=CC=CC2=O` came in with a melting point of 147 °C.

Take `O=Cc1ccc(Cl)cc1F`: the melting point worked out at 59 °C.

Compound `COc1c(F)cc(Br)cc1[N+](=O)[O-]` showed a melting point of 55 °C.

`CC12CCC(O)CC1=CCC1C2CCC2(C)C1CCC2(C)O` (stereo not drawn) registered a melting point of 206 °C.

As for `CSc1ncnc2c1ncn2C1OC(CO)C(O)C1O` (stereo not drawn), the melting point amounted to 164 °C.

In turn, `O=C(C1=NOC2C(=O)N(c3cccc4ccccc34)C(=O)C12)c1cccs1` (stereo not drawn) returned a melting point of 80 °C.

With `CC(=O)CS(C)(=O)=O`, the melting point was 54 °C.

`COc1cc2nc(Cl)nc(Cl)c2cc1OC` yielded a melting point of 177 °C.

Take `CC(C)CCCC(C)C1CCC2C3CC=C4CC(Cl)CCC4(C)C3CCC12C` (stereo not drawn): the melting point is 97 °C.

`CC(CC(C)(C)C1CCCCC1)C1CCCCC1` (stereo not drawn) returned a melting point of -30 °C.

With `COC(=O)c1ccc(S(=O)(=O)c2ccc(C(=O)OC)cc2)cc1`, the melting point lay within 193 to 200 °C.

`Cc1nc(/C(C#N)=C/c2ccc(N(C)C)cc2)sc1/N=N/c1ccc(F)cc1` returned a melting point of 149 °C.

The compound `CC(C)CCCC(C)(C)C` returned a melting point of -105 °C.

On to `c1ccc(C2CCNCC2)cc1`, for which the melting point is 60.5 °C.

In the case of `O=C(Nc1ccccc1[N+](=O)[O-])c1ccccc1`, the melting point was 96 °C.

In the case of `NN=C(c1ccccc1)c1ccccc1`, the melting point worked out at 96.5 °C.

`Clc1ccc2cc(Cl)ccc2c1` returned a melting point of 140 °C.

Turning to `COS(=O)(=O)Cl`, the melting point is -70 °C.

The compound `N#Cc1ccc(F)cc1Cl` displayed a melting point of 64 °C.

`CC1(C)C(C=C(Cl)C(F)(F)F)C1C(=O)O` (stereo not drawn) had a melting point of 108 °C.

`CC12CCC(=O)CC1CCC1C2CCC2(C)C1CCC21OCCS1` (stereo not drawn) showed a melting point of 201 °C.

Compound `O=C(c1ccccn1)c1ccccn1` gave a melting point of 53 to 55 °C.

`CC(C)C(OC(=O)c1cccnc1)c1ccc(Cl)cc1` (stereo not drawn) displayed a melting point of 61 °C.

The compound `COc1ccc(C/C(=N\O)C(=O)O)cc1` came in with a melting point of 159 °C.

`COc1ccc(-c2ocnc2C(=O)Cl)cc1` had a melting point of 97 to 99 °C.

For `Ic1ccc(-n2cccc2)cc1`, the melting point is 131 °C.

`S=c1[nH]ccn1-c1ccccc1Cl` came in with a melting point of 246 to 248 °C.

`Cc1ccc2ccc(C)nc2c1` displayed a melting point of 61 °C.

Compound `CC(=O)OC1CCC2C3CCC4CC5(CCC4(C)C3CCC12C)OCCO5` (stereo not drawn) returned a melting point of 144 °C.

With `O=[N+]([O-])c1cc(C(F)(F)F)ccc1Oc1ccccc1Br`, the melting point lay within 58 to 62 °C.

`NCc1ccc(OC2CCOCC2)cc1` yielded a melting point of 41.5 to 43.5 °C.

Take `COc1ccc(-c2cc(=O)c3c(O)cc(O)cc3o2)cc1`: the melting point is 263 °C.

With `COC(=O)CCC(C)C1CCC2=C3CCC4CC(OC(C)=O)CCC4(C)C3CC(OC(C)=O)C21C` (stereo not drawn), the melting point was determined as 234 °C.

As to `S=c1[nH]c2ncccc2o1`, the melting point is 243 to 246 °C.

For `Brc1ccc(Oc2c(Br)c(Br)c(Br)c(Br)c2Br)cc1`, the melting point is 184 °C.

For `Brc1cccc(Oc2ccccn2)c1`, the melting point lay within 63 to 64 °C.

For `N#Cc1ccc2occc2c1`, the melting point was 84 to 86 °C.

Turning to `CC(C)CCOC(=O)c1cc([N+](=O)[O-])cc([N+](=O)[O-])c1`, the melting point is 61 °C.

The compound `O=C1Nc2c(Br)cccc2C1=O` showed a melting point of 199 to 200 °C.

In the case of `Oc1ccccc1CNCc1ccccc1O`, the melting point came out at 162 °C.

Consider `CC(OCC(=O)c1ccccc1)=C(C#N)c1ccccc1`, for which the melting point was determined as 111 °C.

As to `CC1=CC(=O)OC2(C1)CC1CCC2CN1C` (stereo not drawn), the melting point turned out to be 54.5 °C.

Compound `Oc1ccc(Br)cn1` showed a melting point of 180 °C.

`Cc1cc(C)c2c(=O)n3c(cc2c1)CCCC3` yielded a melting point of 62 °C.

In turn, `FC(F)(F)c1cc(P(c2cc(C(F)(F)F)cc(C(F)(F)F)c2)c2cc(C(F)(F)F)cc(C(F)(F)F)c2)cc(C(F)(F)F)c1` displayed a melting point of 100 °C.
